According to patent US20040068014A1 (priority 2001, published 2004):
Each block holds one compound with its values, some of them ahead of it.

Experiments:
diarrhea = assay: Inducing effect of diarrhea (rats, oral administration)
[1] = tested on: Diclofenac sodium-induced stomach ulcer; assay: Administering time of Ornoprostil and suppression of Diclofenac sodium-induced stomach ulcer; format: in vivo, rat; conditions: for Antiulcer coefficient: inhibition ratio/incidence rate; for Incidence rate of ulcer (Number of Examples): rat oral
[2] = tested on: glycerol-induced nephropathy; assay: Glycerol-induced nephropathy; format: in vivo, rat; conditions: serum 48 hours after glycerol
Method: After weighing SPF/Crj strain maleness rats (9 weeks of ages), they were so divided that average weight of each group might almost be equal. At 48 hours after 50% glycerol (10 ml/kg) (medium: physiological salt solution) was subcutaneously administered to rats deprived water for 48 hours (±2 hour) on […], about 1.5 ml of blood was gathered from the jugular under ether anesthesia. […] Water was supplied to them 2 hour later from administration of glycerol. Those serums were obtained by centrifugal separation (for about 4° C., 3000 rpm, for 15 minutes) of the gathered blood. Urea nitrogen (abbreviated as UN.) (urease·GIDH method) and creatinine (abbreviated as CRE.) (Creatininase·F-DAOS method) in the obtained serum were measured with the biochemistry automated analyzer (AU400 (trade name), Olympus Optical Co., Ltd.).

[3] = OU 0 minutes before Di administering
[4] = OU 5 minutes after Di administering
[5] = OU 5 minutes before Di administering
[6] = OU 10 minutes after Di administering
[7] = OU 10 minutes before Di administering
[8] = OU 30 minutes after Di administering
[9] = OU 30 minutes before Di administering
[10] = OU 60 minutes after Di administering
[11] = OU 60 minutes before Di administering
[12] = GC (subcutis) + OU (10 μg) oral

Compound: CCCC[C@H](C)C[C@H](O)/C=C/[C@H]1[C@H](O)CC(=O)[C@@H]1CC(=O)CCCCC(=O)OC [Ornoprostil, 17S, 20-dimethyl-6-keto PGE1 methyl ester]
Dose which generates induced effect of diarrhea (diarrhea): ≥ 0.4 mg/kg
Antiulcer coefficient [1, 3]: 86.9
Incidence rate of ulcer (Number of Examples) [1, 3]: 7/8
Antiulcer coefficient [1, 4]: 7.1
Incidence rate of ulcer (Number of Examples) [1, 4]: 7/8
Antiulcer coefficient [1, 5]: 100.9
Incidence rate of ulcer (Number of Examples) [1, 5]: 6/8
Antiulcer coefficient [1, 6]: 28.8
Incidence rate of ulcer (Number of Examples) [1, 6]: 8/8
Antiulcer coefficient [1, 7]: 125.1
Incidence rate of ulcer (Number of Examples) [1, 7]: 5/8
Antiulcer coefficient [1, 8]: 16.1
Incidence rate of ulcer (Number of Examples) [1, 8]: 7/8
Antiulcer coefficient [1, 9]: 56.2
Incidence rate of ulcer (Number of Examples) [1, 9]: 7/8
Antiulcer coefficient [1, 10]: 4.1
Incidence rate of ulcer (Number of Examples) [1, 10]: 6/8
Antiulcer coefficient [1, 11]: 97.3
Incidence rate of ulcer (Number of Examples) [1, 11]: 7/8
CRE (serum creatinine) ([2]; GC (subcutis) + OU (3 μg) oral): 1.38 mg/dL
UN (serum urea nitrogen) ([2]; GC (subcutis) + OU (3 μg) oral): 89.7 mg/dL
CRE (serum creatinine) [2, 12]: 1.03 mg/dL
UN (serum urea nitrogen) [2, 12]: 79.9 mg/dL

Number of animals which cause diarrhea/number of laboratory animals (diarrhea; 50 μg/kg): 0/5
Number of animals which cause diarrhea/number of laboratory animals (diarrhea; 100 μg/kg): 1/5
Compound: 15-deoxy-16-hydroxy-16-methyl-PGE1 methyl ester [Misoprostol]
